Experimental findings from ChEMBL document CHEMBL2176943, “Discovery of inhibitors to block interactions of HIV-1 integrase with human LEDGF/p75 via structure-based virtual screening and bioassays” (J Med Chem, 2012) are described below.

The structures appear in SMILES notation. Calls of active or inactive are those of the source. No cut-off for these calls is given here.

Data set [1] concerns the target Human immunodeficiency virus type 1 integrase (Human immunodeficiency virus 1, UniProt Q7ZJM1). Description: Inhibition of HIV1 His6-tagged integrase-human GST tagged LEDGF/p75 (373-442 residues) interaction after 30 mins by AlphaScreen assay.
Data set [2] has as its system Human immunodeficiency virus 1. In words: Antiviral activity against HIV-1 3B infected in C8166 cells assessed as virus-induced cytopathic effect measuring […] formation after 3 days by microscopy. In kind it is functional, organism-based. The following applies: Human immunodeficiency virus 1, 3B, C8166, 72 h.
The nature of data set [3]: Therapeutic index, ratio of CC50 for human C8166 cells to EC50 for HIV-1 3B infected in C8166 cells. Type of data set: cell-based. The following applies: read-out: Ratio CC50/EC50.
A short description of data set [4]: Cytotoxicity against human C8166 cells after 3 days by MTT assay. In kind it is cell-based.
In data set [5] the target is Human immunodeficiency virus type 1 integrase (Human immunodeficiency virus 1) (UniProt Q7ZJM1). Description: Inhibition of nuclear translocation of HIV1 EGFP-labeled integrase expressed in human 293T cells at 36 uM after 24 hrs by microscopic analysis. In kind it is cell-based.
The target is the same in data set [6]. Description: Inhibition of nuclear translocation of HIV1 EGFP-labeled integrase expressed in human 293T cells at 36.40 uM after 24 hrs by microscopic analysis. Type of data set: cell-based.
The target is the same in data set [7]. In words: Inhibition of nuclear translocation of HIV1 EGFP-labeled integrase expressed in human 293T cells at 86.73 uM after 24 hrs by microscopic analysis. In kind it is cell-based.
For data set [8] the target is unchanged. In words: Inhibition of nuclear translocation of HIV1 EGFP-labeled integrase expressed in human 293T cells at 83.83 uM after 24 hrs by microscopic analysis. In kind it is cell-based.

Compound `O=C(/C=C/c1ccccc1O)c1c(O)cc(O)cc1O` registered an IC50 in data set [1] of 6210 nM.
Same read-out and setting: for `O=C(/C=C/c1ccccc1O)c1ccc(O)c(O)c1` the value was 3670 nM.
In data set [1], `COc1cccc(CC(NC(=O)CCCC[C@]23CCC(C)(C)C[C@H]2C2=CC[C@@H]4[C@@]5(C)CC[C@H](O)C(C)(C)[C@@H]5CC[C@@]4(C)[C@]2(C)CC3)C(=O)O)c1OC` (mixture of isomers) had an IC50 of 3220 nM.
Regarding `CC1(C)CC[C@]2(C(=O)O)CC[C@]3(C)C(=CC[C@@H]4[C@@]5(C)CC[C@H](OCc6cccc(C(=O)O)c6)C(C)(C)[C@@H]5CC[C@]43C)[C@@H]2C1`, half-maximal inhibition in data set [1] (IC50) was put at 1140 nM.
The same measure, in the same setting: the result for `CC1(C)CC[C@]2(C(=O)O)CC[C@]3(C)C(=CC[C@@H]4[C@@]5(C)CC[C@H](OCc6ccccc6)C(C)(C)[C@@H]5CC[C@]43C)[C@@H]2C1` reads 700 nM.
On the same count and under the same terms, the result for `O=C(/C=C/c1cccc(O)c1O)c1ccc(O)cc1O` [2,3,2',4'-TETRAHYDROXYCHALCONE] reads 1700 nM.
For `Cc1cn([C@H]2C[C@H](N=[N+]=[N-])[C@@H](CO)O2)c(=O)[nH]c1=O` [ZIDOVUDINE], in data set [2], the 50% effective concentration (EC50) turned out to be 8.7 nM. Moreover, the selectivity ratio in data set [3] was 473000.
Consider `O=C(NCc1cccc([N+](=O)[O-])c1)c1ccc(OCc2ccccc2)cc1O`, for which 3840 nM corresponded to half-maximal inhibition in data set [1] (IC50).
On to `CC1(C)CC[C@]2(CCCCC(=O)NC(Cc3ccccc3Cl)C(=O)O)CC[C@]3(C)C(=CC[C@@H]4[C@@]5(C)CC[C@H](O)C(C)(C)[C@@H]5CC[C@]43C)[C@@H]2C1` (mixture of isomers), for which, in data set [2], the EC50 amounted to 36600 nM. Besides, the selectivity ratio in data set [3] was determined as 2.12. For the same compound, in data set [4], the midpoint of cytotoxicity, the CC50 at 72 h, lay at 77500 nM. In data set [1], the IC50 was found to be 650 nM. In addition, the inhibition entry in data set [5] was “Active”.
In turn, `COc1ccccc1CC(NC(=O)CCCC[C@]12CCC(C)(C)C[C@H]1C1=CC[C@@H]3[C@@]4(C)CC[C@H](O)C(C)(C)[C@@H]4CC[C@@]3(C)[C@]1(C)CC2)C(=O)O` (mixture of isomers) showed an IC50 in data set [1] of 4560 nM.
Same read-out and setting: for `O=C(/C=C/c1ccc(O)c(O)c1)O[C@H](Cc1ccc(O)c(O)c1)C(=O)O` [ROSMARINIC ACID] the value was 550 nM.
Regarding `O=C(/C=C/c1ccccc1Cl)c1ccc(O)cc1O`, in data set [6], the inhibition result was “Active”. Moreover, the concentration for a half-maximal effect (EC50) in data set [2] stood at 1810 nM. Moreover, in data set [3], the selectivity ratio came to 4.88. Further, the CC50 at 72 h in data set [4] is 8830 nM. This compound registered an IC50 in data set [1] of 320 nM.
`O=C(/C=C/c1cc(O)ccc1O)c1ccc(O)cc1O` gave a concentration for half-maximal inhibition (IC50) in data set [1] of 3780 nM.
As to `O=C(/C=C/c1cccc(O)c1O)c1c(O)cc(O)cc1O`, in data set [7], the inhibition entry is “Active”. For the same compound, the 50% effective concentration (EC50) in data set [2] stood at 29600 nM. Also, in data set [3], the selectivity ratio amounted to 3.76. Moreover, the CC50 at 72 h in data set [4] was found to be 111000 nM. The compound further showed an IC50 in data set [1] of 260 nM.
For `COc1cc(CC(NC(=O)CCCC[C@]23CCC(C)(C)C[C@H]2C2=CC[C@@H]4[C@@]5(C)CC[C@H](O)C(C)(C)[C@@H]5CC[C@@]4(C)[C@]2(C)CC3)C(=O)O)cc(OC)c1` (mixture of isomers), in data set [1], the IC50 was 1260 nM.
Same read-out and setting: the result for `Cc1nc2ccccc2c(-c2cc(F)c3c(c2C)CCCO3)c1[C@H](OC(C)(C)C)C(=O)O` reads 19 nM; that for `CC1(C)CC[C@]2(C(=O)O)CC[C@]3(C)C(=CC[C@@H]4[C@@]5(C)CC[C@H](OC(=O)C(=O)O)C(C)(C)[C@@H]5CC[C@]43C)[C@@H]2C1`, 9940 nM.
Still for that read-out and setting: for `CC1(C)CC[C@]2(C(=O)O)CC[C@]3(C)C(=CC[C@@H]4[C@@]5(C)CC[C@H](OC(=O)CC(C)(C)C(=O)O)C(C)(C)[C@@H]5CC[C@]43C)[C@@H]2C1` the value was 5510 nM.
Same read-out and setting: for `O=C(/C=C/c1ccccc1O)c1cccc(O)c1O` the value was 1610 nM.
In the case of `CCOc1cc(/C=C2\SC(=O)N(CC(=O)c3ccccc3)C2=O)c(Br)cc1OCc1ccc(C(=O)O)cc1`, the inhibition entry in data set [8] is “Active”.
As to `O=C(/C=C/c1cc(F)cc(F)c1)c1ccc(O)cc1O`, in data set [1], it took 1750 nM to reach half-maximal inhibition (IC50).
